The record followed here is patent US20080026003A1, “Methods for inhibiting pain” (The General Hospital Corporation, priority 2000, published 2008).

Molecules are shown by their SMILES. “Also recorded” adds a separate entry of the source. Where two headings read alike, the source gives them in different places.

The test system of one assay is NK-1. The conditions noted are these: 1 μg intrathecal 30 minutes before and 6 hours after CFA; 24 hours.
For assay [1], the system named is CFA-induced inflammatory pain in rats. The source says:
For these studies, animals were habituated to the testing environment daily for two days before baseline testing. Except for the heat test, all the animals were placed on an elevated wire grid. For mechanical allodynia, the plantar surface of the hindpaw was stimulated with a series of von Frey hairs. The threshold was taken as the lowest force that evoked a brisk withdrawal response. For heat hyperalgesia, the plantar surface of a hindpaw was exposed to a beam of radiant heat through a transparent Perspex surface (Hargreaves et al., Pain 32:77-88, 1988). The withdrawal latency was recorded, with a maximum 15 seconds as cutoff. The withdrawal latency was averaged over three trials.
To examine the functional consequences of ERK activation and its downstream effects on prodynorphin and NK-1 upregulation, we determined whether inhibition of ERK activation modified inflammatory pain hypersensitivity.
ERK activation by CFA may contribute to inflammatory pain hypersensitivity either by maintaining ongoing post-translational changes or by inducing transcription of genes such as NK1 and prodynorphin. In the former case, blocking ERK activation in established inflammation would be expected to reduce the pain hypersensitivity within tens of minutes due to dephosphorylation of ERK substrates. If the contribution of ERK activation were through transcription, inhibiting ERK activation would be expected to have no immediate effect, but have a delayed effect. To distinguish between these two possible mechanisms, U0126 was intrathecally injected (1 μg) into rats with established inflammation (24 hours after CFA injection) and tested pain hypersensitivity 30 minutes, 6 hours, and 24 hours after the injection of U0126.

A further assay has as its system prodynorphin mRNA. The following applies: 2×1 μg intrathecal; 24 hours after CFA.
In the next assay the test system is CFA-injected paws. Nature of the assay: CFA-induced paw swelling (paw thickness). In kind it is in vivo, rat. The conditions noted are these: intrathecal infusion by osmotic pump started before CFA. Here is the method: (§1) CFA-induced inflammatory pain is characterized by hyperalgesia (i.e., an increased sensitivity to a noxious stimulus) and allodynia (i.e., generation of pain by a normally innocuous stimulus). To examine the involvement of p38 activation in the DRG in inflammatory pain, 10 μl of a specific p38 inhibitor, SB 203580 (1 μg, Calbiochem), was administered into the intrathecal space (close to L4 DRG level) via an intrathecal PP10 catheter. Although p38 inhibitors have an anti-inflammatory action when delivered systematically, localized intrathecal drug administration should not affect inflammation in the paw. To obtain a sustained and stable drug infusion, an Alzet osmotic pump (seven day pump, 0.5 μl/hour) was filled with the p38-inhibitor SB 203580 (1 μg/μl) in saline, and the associated catheter of the pump was implanted intrathecally sixteen hours before CFA injection. Saline was used as vehicle control for the osmotic pump.

In another assay the test system is p-p38 and VR1. The assay can be described thus: p-p38 and VR1 in DRG after intrathecal NGF. In kind it is in vivo, rat. The following applies: 1 μg co-administered with NGF twice a day for three days. Here is the method:
L4 and L5 DRGs and L4-L5 spinal cord segments were dissected. DRG and transverse spinal cord sections (20 μm) were cut and processed for immunohistochemistry using the previously described ABC method (Ji et al., Nat. Neurosci. 2:1114-1119, 1999), with polyclonal anti-p38 and phospho-p38 (1:300, New England BioLabs) and polyclonal anti-VR1 antibodies (1:5000, Kindly provided by Glaxso Welcome and Dr. David Julius). For colocalization studies, immunofluorescence was performed to analyze the double staining between antibodies reactive with phosphop38 (anti-rabbit, 1:300) and VR1 (anti-guinea pig, 1:3000, Neuromics) or P2X3 (anti-guinea pig, 1:3000, Neuromics) or NeuN (anti-mouse, 1:3000, Chemicon). This double immunofluorescence was performed as previously described (Ji et al., 2001, supra). Briefly, DRG and spinal sections were incubated with a mixture of two primary antibodies overnight at 4° C. and then incubated with a mixture of FITC- and CY3-congugated secondary antibodies (1:300, Jackson immunolab) for two hours at room temperature. A Tyramide Signal Amplification (TSA, NEN) kit was used to perform double staining with two polyclonal rabbit antibodies (phospho p38 and TrkA) as previously reported (Amaya et al., Mol. Cell Neurosci 15:331-342, 2000). The images of immunostained DRG sections were captured with a CCD camera. The intensity of immunostaining was measured with computer-assisted software (IP lab), and the number of immunoreactive neuronal profiles was counted in a blinded fashion. […] Instead, the results provide a way to evaluate differences in staining levels between control and treated animals. To prevent variations due to experimental conditions, the control and treated DRG sections were mounted on the same slides and processed under the same conditions. […] As previously reported (Ji et al., 1999, supra), every fifth section was picked from a series of consecutive DRG sections (20 μm), and four sections were included for each DRG. The percentage of immnunoreactive neuronal profiles=(number of positive stained neuronal profiles/number of total neuronal profiles)×100.
After CFA-induced inflammation, NGF is produced in the inflamed paw tissue and is retrogradely transported to the cell body of DRG neurons. NGF is critical for gene expression in DRG neurons and plays a major role in inflammatory pain (Lindsay et al., Nature 337: 362-364, 1989; and Woolf et al., Neuroscience 62:327-331, 1994). […] To determine whether NGF is required for the inflammation-induced activation of p38 and upregulation of VR1, NGF antiserum (i.p., 5 μl/g body weight, 84 mg/ml) was injected to neutralize endogenous NGF. […] Intrathecal injection of NGF (2 μg in 10 μl, twice a day for three days, Boeringer) increased both p-p38 levels and VR1 levels in DRG neurons. […]

Assay [2] has as its system CFA-induced inflammatory pain in rats. Nature of the assay: Heat and mechanical sensitivity after intrathecal p38 inhibitor. In kind it is in vivo, rat. The following applies: intrathecal 1 μg 24 hours after CFA treatment; tested 0.5, 3 and 24 hours.
Assay [3] has the same test system. Described as above. The conditions noted are these: for late phase of inflammation-induced heat hyperalgesia: 24 and 48 hours after CFA. In kind it is in vivo, rat. The protocol:
as §1
To test whether the p38 inhibitor affects basal pain sensitivity, heat and mechanical sensitivity were measured, as previously described (Ji et al., 2001, supra). Briefly, animals were habituated and basal pain sensitivity was tested before drug administration or surgery. Mechanical withdrawal threshold on the plantar surface of the hindpaw was measured with a set of von Frey hairs. […] Thermal paw withdrawal latency was measured using the Hargreaves radiant heat apparatus and averaged over three trials. […] To investigate whether the p38 inhibitor affects established inflammatory pain, SB203580 (1 μg) was intrathecally injected 48 hours after CFA injection. Pain behavior was measured 0.5, 3, and 24 hours after the inhibitor was injected.

A further assay relates to VR1 protein. The assay can be described thus: VR1 protein in DRG after CFA inflammation (Western blot, immunohistochemistry). It counts as in vivo, rat. The conditions noted are these: for induction of VR1 after inflammation: continuous intrathecal infusion via osmotic pump, two days. The protocol: L4 and L5 DRGs and L4-L5 spinal cord segments were dissected. DRG and transverse spinal cord sections (20 μm) were cut and processed for immunohistochemistry using the previously described ABC method (Ji et al., Nat. Neurosci. 2:1114-1119, 1999), with polyclonal anti-p38 and phospho-p38 (1:300, New England BioLabs) and polyclonal anti-VR1 antibodies (1:5000, Kindly provided by Glaxso Welcome and Dr. David Julius). For colocalization studies, immunofluorescence was performed to analyze the double staining between antibodies reactive with phosphop38 (anti-rabbit, 1:300) and VR1 (anti-guinea pig, 1:3000, Neuromics) or P2X3 (anti-guinea pig, 1:3000, Neuromics) or NeuN (anti-mouse, 1:3000, Chemicon). This double immunofluorescence was performed as previously described (Ji et al., 2001, supra). Briefly, DRG and spinal sections were incubated with a mixture of two primary antibodies overnight at 4° C. and then incubated with a mixture of FITC- and CY3-congugated secondary antibodies (1:300, Jackson immunolab) for two hours at room temperature. A Tyramide Signal Amplification (TSA, NEN) kit was used to perform double staining with two polyclonal rabbit antibodies (phospho p38 and TrkA) as previously reported (Amaya et al., Mol. Cell Neurosci 15:331-342, 2000). The images of immunostained DRG sections were captured with a CCD camera. The intensity of immunostaining was measured with computer-assisted software (IP lab), and the number of immunoreactive neuronal profiles was counted in a blinded fashion. […] Instead, the results provide a way to evaluate differences in staining levels between control and treated animals. To prevent variations due to experimental conditions, the control and treated DRG sections were mounted on the same slides and processed under the same conditions. […]
To determine whether expression of VR1 protein in DRG neurons was induced by peripheral inflammation, the following Western blot analysis was used. […] The density of specific bands was measured and normalized with internal control bands from the loading control. […]
In general terms: A western blot detects proteins with antibodies after separation by electrophoresis.

[4] abbreviates: non-inflamed animals, 1 μg intrathecal, 30 minutes after administration.
The mark [5] stands for this setting: intrathecal infusion before CFA.
The mark [6] stands for this setting: intrathecal infusion before CFA, listed as SB 203580.

Protocol for NK-1: The data are represented as mean+SEM.
To explore whether ERK activation is involved in NK-1 upregulation, the MEK inhibitor U0126 was delivered intrathecally before the induction of inflammation via an osmotic pump (0.5 μg/ul/hr for 2 days). In particular, an Alzet osmotic pump (three days pump, 1 μl/hr) was filled with the MEK-inhibitor U0126 (0.5 μg/μl) in 50% DMSO, and the catheter of the pump implanted intrathecally at least three hours before CFA injection. DMSO (50%) was used as vehicle control.
Description for prodynorphin mRNA: To investigate changes in the expression of prodynorphin in response to inflammation, an RNase protection assay, in situ hybridization, and immunohistochemistry were used. […] Differences between groups were compared using student the t-test or ANOVA, followed by Fisher's PLSD. For non-parametric data, the Mann-Whittney U test was applied.
For the in situ hybridization analysis, animals were rapidly sacrificed in a CO2 chamber, and L4-L5 spinal cord segments were removed and cut on a cryostat at a thickness of 20 μm. […] An antinsense RNA probe, and the corresponding sense control probe, were labeled by in vitro transcription using linearized DNA templates for prodynorphin and dig labeling mixture for two hours at 37° C. […] Tissue Sections were air dried for two hours, fixed in 4% paraformaldehyde for 15 minutes, and acetylated in acetic anhydride (0.25%) for 10 minutes. Sections were pre-hybridized for two hours at room temperature, then incubated in hybridization buffer overnight at 60° C. […] Eight non-adjacent sections from the L4-L5 lumbar spinal cord were randomly selected, and the numbers of mRNA-positive neuronal profiles in the superficial laminae and/or deep laminae of the dorsal horn in each section were counted (under a 20× object field) by an observer blind to the treatment. […]

`N#CC(=C(/N)Sc1ccccc1N)/C(C#N)=C(\N)Sc1ccccc1N` [U0126]: in the assay on NK-1, the “CFA-induced NK-1 increase in the dorsal horn (Western blot)” value is given as “inhibited”. For the same compound, the “heat hyperalgesia and mechanical allodynia” value in assay [1] (1 μg intrathecal 24 hours after CFA, tested at 30 minutes) was “Neither heat hyperalgesia nor mechanical allodynia was significantly affected”. The mechanical allodynia result in assay [1] (1 μg intrathecal 24 hours after CFA, tested at 6 hours) is on record as “decreased”. Further, in assay [1] (1 μg intrathecal 24 hours after CFA, tested at 24 hours), the heat hyperalgesia entry was “decreased”. In addition, in assay [1] (setting [4]), the heat withdrawal latency is given as 113 % of vehicle control and the mechanical withdrawal threshold is listed as 108 % of the vehicle control. In addition, the “number of prodynorphin mRNA labeled neurons in the deep laminae” value with prodynorphin mRNA is recorded as “without affecting”.

Regarding `C[S+]([O-])c1ccc(-c2nc(-c3ccncc3)c(-c3ccc(F)cc3)[nH]2)cc1` (stereo not shown) [SB203580], the “CFA-induced swelling, based on paw thickness” value is listed as “does not change” in the assay on CFA-injected paws and “did not reduce” in the assay with CFA-injected paws (listed as SB 203085). Also, the “NGF-induced VR1 increase” value in the assay with p-p38 and VR1 is given as “significantly suppressed”; with p-p38 and VR1 (listed as 203580) it was “blocked”. The inflammatory heat hyperalgesia entry is listed as “delayed inhibition” in assay [2] and “decreased” in assay [3] (intrathecal bolus 1 μg twice a day for two days, first 30 minutes prior to CFA). For the same compound, the established inflammatory pain result in assay [3] (1 μg intrathecal after CFA, 0.5 hours post-injection) was “did not affect”. Further, the heat hyperalgesia result in assay [3] (1 μg intrathecal after CFA, 24 hours post-injection) is “completely reversed”; in assay [3] (1 μg intrathecal after CFA, three hours post-injection) it was “started to decrease”. Moreover, the mechanical allodynia entry in assay [3] (setting [5]) is “did not significantly affect”; in assay [3] (setting [6]), “did not affect”. Besides, the figures for the “late phase of inflammation-induced heat hyperalgesia” value in assay [3] (setting [5]) and in assay [3] (setting [6]) were “alleviated” and “reduced”, respectively. Also, the “heat and mechanical sensitivity in non-inflamed rats” value in assay [3] (non-inflamed rats, intrathecal) is reported as “Neither heat nor mechanical sensitivity in non-inflamed rats was affected”. The “early phase of inflammatory pain” value in assay [3] (six hour time point, intrathecal infusion before CFA) is listed as “did not change”. Moreover, the “induction of VR1 after inflammation” value was “inhibited; also recorded: blocked” in the assay on VR1 protein and “decreased” in the assay on VR1 protein (listed as SB 203580). Moreover, in the assay with VR1 protein (intrathecal 1 μg twice a day for two days, at two days), the “CFA-induced upregulation of VR1 protein (Western blot)” value was “blocked”.
